These results are taken from paper PMC6779870, “Structural analysis of fungal pathogenicity-related casein kinase α subunit, Cka1, in the human fungal pathogen Cryptococcus neoformans” (Scientific Reports, 2019).

For the experiment, the target named is T1, cnCka1 (Cryptococcus neoformans CK2α orthologue, Cka1) (Cryptococcus neoformans, UniProt J9VNH4).
T1 construct: gene CNAG_05694; full-length, Met1–Pro338 (His6-TRX fusion in SPR; tag removed for crystal)
The experiment can be described thus: SPR (Biacore […]) and crystal structure at […] Å; also ADP-Glo kinase assay. The experiment is classed as binding.

T1 sequence (J9VNH4 entry or part of it): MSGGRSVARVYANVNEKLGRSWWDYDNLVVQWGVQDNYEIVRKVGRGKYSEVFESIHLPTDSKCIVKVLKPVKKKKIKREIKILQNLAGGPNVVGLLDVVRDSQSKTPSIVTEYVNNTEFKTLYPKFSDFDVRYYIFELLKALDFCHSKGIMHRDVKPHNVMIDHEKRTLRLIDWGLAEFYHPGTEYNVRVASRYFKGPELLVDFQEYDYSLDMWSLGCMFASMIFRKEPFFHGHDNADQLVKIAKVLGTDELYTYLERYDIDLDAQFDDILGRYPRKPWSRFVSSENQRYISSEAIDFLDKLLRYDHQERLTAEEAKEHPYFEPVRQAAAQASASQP

`O=C(O)c1ccc2c(c1)nc(Nc1cccc(Cl)c1)c1ccncc12` [CX-4945, 5-(3-chlorophenylamino)benzo[c][2,6]naphthyridine-8-carboxylic acid] yielded a dissociation constant Kd of 60.1 nM.
